{"source": "patent US11730731B2", "about": "(INVENTAGE LAB INC., priority 2021, dated 2023)", "key": {"[1]": {"tested_on": "inflammatory mediators in arthritis tissue (IL-1β, IL-6, IL-17, TNF-α, MCP-1, MIP-2, IL-2)", "assay": "Multiplex protein immunoassay (Luminex multi-analyte-ELISA) of inflammatory mediators in arthritic tissue", "format": "in vivo, mouse", "settings": "for ELISA values in Arthritis Paw, IL-1β, Mean / ELISA values in Arthritis Paw, IL-6, Mean / ELISA values in Arthritis Paw, IL-17, Mean / ELISA values in Arthritis Paw, TNF-α, Mean: CIA mice, Example 3, positive control groups (MTX, Xeljanz); for MCP-1, ELISA values in Arthritis Paw (pg/mL) Mean / MIP-2, ELISA values in Arthritis Paw (pg/mL) Mean: MTX 1 mg/kg ip twice/week, MTX 1 mg/kg + Q-DDS 3 mg/mouse", "from_the_text": "In order to evaluate the inflammatory activity and confirm the mode of action of the test substance through quantitative analysis of inflammatory substances in mouse arthritis tissue and blood, inflammatory mediators were investigated at the protein level. In order to overcome the limitation of the amount of sample that can be extracted for protein analysis, a multi-analyte-ELISA (multi-analyte-ELISA) method based on Luminex technology was used to analyze the largest amount of protein in a small sample.\n(§1) The mouse joint tissue obtained after treatment with the test substance in the method of Example 3.1 was pulverized through ceramic beads, and all proteins were extracted using a lysis buffer (Cat. 1713040111, Bio-Rad). Using Pro-reagent kit V, the same amount of protein (2.7 mg/mL) for each administration group was diluted ¼ and reacted with the target-binding beads in a culture dish for 30 minutes. After washing with a wash buffer, it was reacted with the target-measurement antibody for 30 minutes, and after washing with a wash buffer again, it was reacted with streptavidin-PE for 10 minutes. Thereafter, the target protein is quantitatively measured for each administration group using the Bio-Plex® 200 system (Bio-Rad). The target-binding beads were composed of a set that can be combined as needed from Bio-Plex Mouse cytokine 4-plex (IL-1β, IL-6, IL-17A, TNF-α; Cat. 171G5002M), Bio-Plex Pro Mouse Cytokine 1-plex (MCP1; Cat. 171G5019M), Bio-Plex Pro Mouse Cytokine II 1-plex (MIP2; Cat 171G6006M), and Bio-Plex Pro Mouse Cytokine 1-plea (IL-6; Cat. 171 G5007M) (all products are from Bio Rad) and were used for measurement.\nFor the measurement result, paw tissue weight of the mouse was corrected for the quantified target protein. For each target joint, the hind paw was mainly used, and in order to overcome the limitation of the amount of protein extracted from the joint tissue, up to 4 inflammatory mediators were measured in one well.\nOn the other hand, as the target protein to be measured, a representative inflammation-promoting cytokine group A (IL-1β, IL-6, IL-17, and TNF-α) among inflammatory mediators, and a chemokine group B (MCP-1 and MIP-2) among inflammatory mediators was selected to carry out the experiment. The measurement results were summarized in FIGS. 12A and 12B, and Tables 19 and 20 below. […]\nas §1, with “4.1. above” for “3.1”, “171 G5002M),” for “171G5002M),”, “Cat. 171 G6006M),” for “Cat 171G6006M),”, “1-plex” for “1-plea”, “171G5007M)” for “171 G5007M)”\nOn the other hand, as the target protein to be measured, a representative inflammation-promoting cytokine group A (IL-1β, IL-6, IL-17, and TNF-α) among inflammatory mediators, and IL-2 and a chemokine group B (IL-2, MCP-1 and MIP-2) among inflammatory mediators were selected to carry out the experiment. The measurement results were summarized in FIGS. 18A and 18B, and Tables 29 and 30 below."}, "[2]": {"tested_on": "murine collagen-induced arthritis (CIA)", "assay": "Imaging evaluation of arthritis using micro-CT, CIA mice", "format": "in vivo", "settings": "Example 3, CIA mouse; MTX 1 mg/kg ip twice/week; Xeljanz 10 mg/kg oral once/day; MTX 1 mg/kg + Q-DDS 3 mg/mouse", "procedure": "(§2) The radiographs were 3D rendered using the Quantum FX μCT imaging system (Perkin Elmer, MA), and then the radiological score was evaluated, and the bone volume ratio (Bone volume [BV]/Tissue volume [Tissue volume; TV]) and bone surface density (Bone surface area (BS)/Bone volume (BV)) were also measured. Two or more investigators performed blind evaluation for joint destruction, and the indicators in Table 17 below were used as the scoring criteria. The average value of the researchers' blind evaluation data was used as the score, and the average score of the paw tissue was calculated as the score of each group.\nas §2, with “[BV]/Tissue” for “[BV]/Tissue volume [Tissue”, “TV)” for “TV])”, “(BV)), and cortical bone thickness” for “(BV))”, “researchers” for “investigators”, “above” for “below”"}, "[3]": {"tested_on": "pro-inflammatory cytokines (TNF-α, IL-1β, IL-6, IL-17, iNOS) in Raw 264.7 cells", "assay": "RT-qPCR of LPS-induced pro-inflammatory cytokine expression in Raw 264.7 cells", "settings": "6 hours", "source_text": "Lipopolysaccharide (LPS) was purchased from Sigma-Aldrich (St. Louis, Mo., USA)."}, "p65 NF-κB": {"tested_on": "p65 NF-κB", "assay": "Western blotting of NF-κB activity in LPS-treated Raw 264.7 cells", "format": "cell-based, mouse"}, "[4]": {"settings": "Example 3, CIA mouse joint tissue, Xeljanz 10 mg/kg oral once/day"}}}
{"compound": "CN(Cc1cnc2nc(N)nc(N)c2n1)c1ccc(C(=O)N[C@@H](CCC(=O)O)C(=O)O)cc1", "note": "[Methotrexate, methotrexate]", "values": [{"measurement": "ELISA values in Arthritis Paw, IL-1β, Mean", "setting": "[1]", "value": 1.05, "unit": "pg/mL"}, {"measurement": "ELISA values in Arthritis Paw, IL-6, Mean", "setting": "[1]", "value": 1.8, "unit": "pg/mL"}, {"measurement": "ELISA values in Arthritis Paw, IL-17, Mean", "setting": "[1]", "value": 2.269, "unit": "pg/mL"}, {"measurement": "ELISA values in Arthritis Paw, TNF-α, Mean", "setting": "[1]", "value": 6.54, "unit": "pg/mL"}, {"measurement": "MCP-1, ELISA values in Arthritis Paw (pg/mL) Mean", "setting": "[1]; [4]", "value": 76.1, "unit": "pg/mL"}, {"measurement": "MIP-2, ELISA values in Arthritis Paw (pg/mL) Mean", "setting": "[1]; [4]", "value": 4.4, "unit": "pg/mL"}, {"measurement": "Bone surface area/bone volume (mm^−1) Mean (micro-CT)", "setting": "[2]", "value": 6.12, "unit": "mm^−1"}, {"measurement": "Bone volume/tissue volume (%) Mean (micro-CT)", "setting": "[2]", "value": 31.25, "unit": "%"}, {"measurement": "Radiological score Mean (joint destruction, micro-CT)", "setting": "[2]", "value": 1.67}]}
{"compound": "O=C1CC[C@@]2(O)[C@H]3Cc4ccc(O)c5c4[C@@]2(CCN3CC2CC2)[C@H]1O5", "note": "[Naltrexone, 17-(cyclopropylmethyl)-4,5α-epoxy-3,14-dihydroxymorphinan-6-one]", "values": [{"measurement": "expression of cytokines (iNOS, IL-1β, IL-6, TNF-α) induced by LPS", "setting": "[3]; LPS 1 ug/ml, 0.5, 1, 10, 100 uM", "value": "suppressed at all concentrations"}, {"measurement": "expression of pro-inflammatory cytokines (TNF-α, IL-1β, IL-6, IL-17, iNOS) increased by LPS", "setting": "[3]; LPS 1 ug/ml, naltrexone 200 or 500 ug/ml", "value": "significantly inhibited"}, {"measurement": "p65 NF-κB phosphorylation increased by LPS", "setting": "p65 NF-κB; LPS 1 ug/ml, 0.5, 1, 10, 100 uM, 30 minutes", "value": "inhibited"}, {"measurement": "phosphorylation of p65 NF-κB increased by LPS", "setting": "p65 NF-κB; from a concentration of 500 ug/ml of naltrexone (100, 200, 500, 1000 ug/ml tested), Western blotting", "value": "inhibits the activity of NF-κB"}]}
{"compound": "C[C@@H]1CCN(C(=O)CC#N)C[C@@H]1N(C)c1ncnc2[nH]ccc12", "note": "[Xeljanz ®, Tofacitinib]", "values": [{"measurement": "ELISA values in Arthritis Paw, IL-1β, Mean", "setting": "[1]", "value": 12.68, "unit": "pg/mL"}, {"measurement": "ELISA values in Arthritis Paw, IL-6, Mean", "setting": "[1]", "value": 88.6, "unit": "pg/mL"}, {"measurement": "ELISA values in Arthritis Paw, IL-17, Mean", "setting": "[1]", "value": 4.57, "unit": "pg/mL"}, {"measurement": "ELISA values in Arthritis Paw, TNF-α, Mean", "setting": "[1]", "value": 24.52, "unit": "pg/mL"}, {"measurement": "MCP-1, ELISA values in Arthritis Paw (pg/mL) Mean", "setting": "[1]; [4]", "value": 207.9, "unit": "pg/mL"}, {"measurement": "MIP-2, ELISA values in Arthritis Paw (pg/mL) Mean", "setting": "[1]; [4]", "value": 126.8, "unit": "pg/mL"}, {"measurement": "IL-17 protein in arthritis tissue", "setting": "[1]; [4]", "value": 4.57, "unit": "pg/mL"}, {"measurement": "TNF-α protein in arthritis tissue", "setting": "[1]; [4]", "value": 24.52, "unit": "pg/mL"}, {"measurement": "Bone surface area/bone volume (mm^−1) Mean (micro-CT)", "setting": "[2]", "value": 6.52, "unit": "mm^−1"}, {"measurement": "Bone volume/tissue volume (%) Mean (micro-CT)", "setting": "[2]", "value": 25.27, "unit": "%"}, {"measurement": "Radiological score Mean (joint destruction, micro-CT)", "setting": "[2]", "value": 2.08}]}
